ChEMBL document CHEMBL1201862, “PubChem BioAssay data set” (2004)
Activity calls are given as the source filed them.

Key:
[1] = molecular target: T1, Mannose-6-phosphate isomerase (Homo sapiens, UniProt P34949); assay: human PMI inhibitors, high substrate, primary screen, biochemical, fluorescence intensity, high mannose 6-phosphate (AID 1220)
T1 sequence (P34949 whole entry): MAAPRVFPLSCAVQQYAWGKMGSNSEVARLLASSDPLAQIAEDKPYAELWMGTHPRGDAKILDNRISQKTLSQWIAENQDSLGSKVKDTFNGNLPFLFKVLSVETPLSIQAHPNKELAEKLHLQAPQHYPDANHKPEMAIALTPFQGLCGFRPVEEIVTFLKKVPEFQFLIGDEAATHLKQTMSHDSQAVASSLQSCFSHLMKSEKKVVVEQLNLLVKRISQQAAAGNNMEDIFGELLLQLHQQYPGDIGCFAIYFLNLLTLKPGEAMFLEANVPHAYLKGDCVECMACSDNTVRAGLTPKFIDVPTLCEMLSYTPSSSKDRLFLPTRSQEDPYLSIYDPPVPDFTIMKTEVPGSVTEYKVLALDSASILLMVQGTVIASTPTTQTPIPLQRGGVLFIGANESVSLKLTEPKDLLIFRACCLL

[2] = molecular target: Lysine-specific demethylase 4C (Homo sapiens, UniProt Q9H3R0); assay: GASC-1 (JMJD2C) histone demethylase inhibitors, dose response, biochemical, DELFIA europium, cherry-picked samples (AID 488835); assay type: functional
[3] = molecular target: Lysine-specific demethylase 4A (Homo sapiens, UniProt O75164); assay: JMJD2A histone demethylase inhibitors, dose response, selectivity assay for GASC-1 inhibitor project, biochemical, DELFIA europium, cherry-picked samples (AID 488840)
[4] = molecular target: T2, RNA-binding protein pos-1 (Caenorhabditis elegans, UniProt G5EF15); assay: inhibitors of POS-1/mex-3 RNA binding, dose response, biochemical, fluorescence polarization (AID 1964);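 also: purified POS-1 fused to maltose binding protein made in E. coli; potency of compounds blocking POS-1 binding to fluorescent RNA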
T2 sequence (G5EF15 whole entry): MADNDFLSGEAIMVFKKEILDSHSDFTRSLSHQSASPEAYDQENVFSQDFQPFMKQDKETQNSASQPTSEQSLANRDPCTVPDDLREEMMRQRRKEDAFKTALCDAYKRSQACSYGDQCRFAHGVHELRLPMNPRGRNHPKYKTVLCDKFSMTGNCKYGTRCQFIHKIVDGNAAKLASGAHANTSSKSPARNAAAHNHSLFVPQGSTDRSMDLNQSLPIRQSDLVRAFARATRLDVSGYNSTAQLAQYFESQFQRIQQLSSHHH

[5] = Counterscreen for AddAB inhibitors: absorbance-based bacterial cell-based high throughput dose response assay for inhibitors of bacterial viability. [Related pubchem assays (depositor defined):AID435030, AID449728, AID449731, AID488942, AID488955, AID488956]; assay type: functional
Exodeoxyribonuclease V = Exodeoxyribonuclease V (Escherichia coli (strain K12), UniProt P04993+P07648+P08394); assay: E. coli RecBCD inhibitors, dose response, counter-screen for AddAB inhibitor project, absorbance, V66 E. coli, mutant T4 phage (AID 492957); assay type: functional, cell-based, Escherichia coli str. K-12 substr. MG1655
[6] = molecular target: T3, Zinc finger protein mex-5 (Caenorhabditis elegans, UniProt Q9XUB2); assay: MEX-5/TCR-2 RNA interaction inhibitors, dose response, biochemical, C. elegans, fluorescence polarization (AID 1960)
T3 sequence (Q9XUB2 whole entry): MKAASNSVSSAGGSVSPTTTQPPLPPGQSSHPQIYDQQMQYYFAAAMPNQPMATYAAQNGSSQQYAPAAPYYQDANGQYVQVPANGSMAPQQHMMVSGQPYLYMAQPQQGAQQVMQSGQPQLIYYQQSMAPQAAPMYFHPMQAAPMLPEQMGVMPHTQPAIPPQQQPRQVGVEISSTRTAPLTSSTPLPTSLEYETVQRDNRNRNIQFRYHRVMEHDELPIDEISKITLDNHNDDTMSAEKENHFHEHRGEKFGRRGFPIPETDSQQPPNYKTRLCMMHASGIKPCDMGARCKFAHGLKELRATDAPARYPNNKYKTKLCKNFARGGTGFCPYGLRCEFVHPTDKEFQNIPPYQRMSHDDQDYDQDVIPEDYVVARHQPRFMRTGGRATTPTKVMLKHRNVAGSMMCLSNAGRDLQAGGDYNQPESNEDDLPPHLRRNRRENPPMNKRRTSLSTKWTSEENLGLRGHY

[7] = Escherichia coli growth inhibition, dose response, counter-screen for MEX-5/POS-1 RNA-binding inhibitor project, luminescence, NEB5alpha (AID 1959); assay type: functional
Streptococcus = assay: Group A Streptococcus viability loss, dose response, counter-screen for streptokinase expression inhibitor project, luminescence, BacTiterGlo (AID 1915); assay type: functional, organism-based;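 also: potency for reduction of bacterial viability or growth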
[8] = molecular target: T4, Small ubiquitin-related modifier 1 (Homo sapiens, UniProt P63165); assay: inhibitors of SUMO1 partner interactions, dose response, biochemical, FRET (AID 624383); assay type: functional; settings: read-out: IC50_Mean
[9] = molecular target: T4, Small ubiquitin-related modifier 1; assay: inhibitors of SUMO1 peptide binding, dose response, biochemical, fluorescence polarization, uHTS hits (AID 624382); assay type: functional; settings: read-out: IC50_Mean
[10] = molecular target: T5, Small ubiquitin-related modifier 2 (Homo sapiens, UniProt P61956); assay: inhibitors of SUMO2 protein-protein interaction, dose response, selectivity assay for SUMO1 interaction inhibitor project, biochemical, FRET, human SUMO2, uHTS hits (AID 624384); assay type: functional; settings: read-out: IC50_Mean
Streptokinase A = molecular target: T6, Streptokinase A (Streptococcus pyogenes serotype M1, UniProt P10520); assay: S. pyogenes streptokinase expression inhibitors, potency, dose response, plasminogen activation absorbance, OD405 (AID 1914); assay type: functional, Streptococcus pyogenes M1 GAS;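 also: secreted streptokinase activity via plasminogen activation per viability signal from cell pellet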
T6 sequence (P10520 whole entry): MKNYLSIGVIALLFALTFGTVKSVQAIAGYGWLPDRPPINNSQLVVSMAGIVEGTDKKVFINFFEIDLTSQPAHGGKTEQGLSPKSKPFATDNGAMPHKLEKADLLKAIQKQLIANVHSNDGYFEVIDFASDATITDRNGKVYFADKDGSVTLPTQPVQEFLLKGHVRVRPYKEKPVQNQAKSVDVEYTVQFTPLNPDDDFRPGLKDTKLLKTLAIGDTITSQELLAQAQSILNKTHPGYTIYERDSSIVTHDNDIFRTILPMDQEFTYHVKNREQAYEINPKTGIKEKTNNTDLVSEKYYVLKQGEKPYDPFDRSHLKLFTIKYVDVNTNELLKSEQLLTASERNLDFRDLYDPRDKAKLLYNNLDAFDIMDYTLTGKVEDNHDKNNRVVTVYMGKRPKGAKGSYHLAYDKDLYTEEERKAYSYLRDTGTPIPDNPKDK

[11] = molecular target: T7, Dual specificity protein phosphatase 3 (Homo sapiens, UniProt P51452); assay: VHR1 phosphatase inhibitors, primary screen, biochemical, absorbance, uHTS (AID 1654)
[12] = molecular target: T8, Dual specificity protein phosphatase 6 (Rattus norvegicus, UniProt Q64346); assay: MKP-3 phosphatase inhibitors, primary screen, biochemical, rat enzyme, in vitro (AID 425)
T8 sequence (Q64346 whole entry): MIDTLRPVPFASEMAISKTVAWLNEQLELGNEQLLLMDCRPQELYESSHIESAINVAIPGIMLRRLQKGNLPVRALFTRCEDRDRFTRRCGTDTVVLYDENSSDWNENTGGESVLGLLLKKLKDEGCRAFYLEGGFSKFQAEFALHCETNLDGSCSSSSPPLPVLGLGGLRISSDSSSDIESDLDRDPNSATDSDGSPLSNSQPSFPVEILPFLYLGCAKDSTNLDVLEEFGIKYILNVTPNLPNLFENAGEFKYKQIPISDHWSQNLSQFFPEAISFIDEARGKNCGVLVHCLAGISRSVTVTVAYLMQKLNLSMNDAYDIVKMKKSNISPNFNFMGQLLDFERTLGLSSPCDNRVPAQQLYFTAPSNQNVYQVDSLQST

[13] = molecular target: T5, Small ubiquitin-related modifier 2; assay: SUMO2–SIM peptide binding inhibitors, dose response, selectivity assay for SUMO1 interaction inhibitor project, biochemical, fluorescence polarization, uHTS hits (AID 624385); assay type: functional; settings: read-out: IC50_Mean
[14] = test system: Streptococcus sp. 'group A'; assay: growth inhibition of control SK(-) GAS strain, dose response, counter-screen for streptokinase expression inhibitor project, luminescence, kanamycin, BacTiterGlo, confirmation (AID 1900); assay type: functional, organism-based
[15] = molecular target: T7, Dual specificity protein phosphatase 3; assay: VHR1 phosphatase inhibitors, biochemical (AID 1878)
[16] = molecular target: T9, Calpain-2 catalytic subunit (Sus scrofa, UniProt P43367); assay: pig calpain II inhibitor potency, dose response, biochemical, fluorogenic peptide substrate (AID 1420); assay type: functional
T9 sequence (P43367 whole entry): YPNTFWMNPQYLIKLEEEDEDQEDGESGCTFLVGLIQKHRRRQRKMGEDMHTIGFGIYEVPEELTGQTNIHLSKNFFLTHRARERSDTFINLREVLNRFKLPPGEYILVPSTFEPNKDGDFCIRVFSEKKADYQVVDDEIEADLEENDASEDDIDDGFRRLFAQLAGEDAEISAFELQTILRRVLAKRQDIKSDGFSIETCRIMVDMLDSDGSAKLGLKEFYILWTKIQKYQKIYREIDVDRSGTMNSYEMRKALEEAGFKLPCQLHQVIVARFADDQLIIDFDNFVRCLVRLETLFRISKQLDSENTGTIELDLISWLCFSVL

Genome polyprotein = Genome polyprotein (dengue virus type 2, UniProt P29990); assay: Dengue-2 NS5 methyltransferase inhibitors, primary screen, biochemical, confirmation dose response (AID 588689); assay type: functional
Genome polyprotein, sequence (P29990 2492-3391 limits assumed): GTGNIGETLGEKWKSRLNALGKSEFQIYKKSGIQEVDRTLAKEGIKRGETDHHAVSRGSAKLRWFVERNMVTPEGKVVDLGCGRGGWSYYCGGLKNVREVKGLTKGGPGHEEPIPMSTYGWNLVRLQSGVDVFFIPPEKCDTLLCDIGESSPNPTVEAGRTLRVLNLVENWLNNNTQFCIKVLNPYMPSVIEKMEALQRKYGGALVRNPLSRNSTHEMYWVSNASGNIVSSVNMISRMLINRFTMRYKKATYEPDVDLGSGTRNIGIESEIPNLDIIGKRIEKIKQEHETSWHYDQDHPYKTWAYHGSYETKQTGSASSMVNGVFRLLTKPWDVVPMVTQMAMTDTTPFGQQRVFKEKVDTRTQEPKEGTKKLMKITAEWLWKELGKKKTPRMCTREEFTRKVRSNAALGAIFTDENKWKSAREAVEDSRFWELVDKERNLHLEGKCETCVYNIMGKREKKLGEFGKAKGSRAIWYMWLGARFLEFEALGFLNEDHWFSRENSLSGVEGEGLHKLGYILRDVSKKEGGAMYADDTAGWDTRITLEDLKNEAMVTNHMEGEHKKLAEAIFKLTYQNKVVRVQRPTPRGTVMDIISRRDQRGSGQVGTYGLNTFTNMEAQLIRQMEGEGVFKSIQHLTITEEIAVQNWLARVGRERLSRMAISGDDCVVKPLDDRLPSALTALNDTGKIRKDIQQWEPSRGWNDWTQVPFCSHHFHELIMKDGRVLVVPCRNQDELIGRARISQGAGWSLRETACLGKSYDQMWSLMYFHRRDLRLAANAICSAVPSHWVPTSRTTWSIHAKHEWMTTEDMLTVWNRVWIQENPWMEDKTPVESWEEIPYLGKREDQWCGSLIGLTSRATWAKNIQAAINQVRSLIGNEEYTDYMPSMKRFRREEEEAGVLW

T4 sequence (P63165 whole entry): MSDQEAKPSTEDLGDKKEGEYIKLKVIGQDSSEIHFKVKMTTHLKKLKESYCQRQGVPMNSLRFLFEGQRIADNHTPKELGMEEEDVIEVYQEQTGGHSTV
T7 sequence (P51452 whole entry): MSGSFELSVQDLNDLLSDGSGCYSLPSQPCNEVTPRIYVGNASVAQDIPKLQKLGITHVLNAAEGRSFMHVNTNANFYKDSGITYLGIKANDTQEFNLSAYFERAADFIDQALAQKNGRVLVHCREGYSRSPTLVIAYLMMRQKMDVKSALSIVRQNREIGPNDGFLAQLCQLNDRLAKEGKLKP
T5 sequence (P61956 whole entry): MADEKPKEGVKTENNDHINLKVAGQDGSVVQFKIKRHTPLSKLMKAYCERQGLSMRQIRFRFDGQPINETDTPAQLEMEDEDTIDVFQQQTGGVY
Lysine-specific demethylase 4A, sequence (O75164 whole entry, the tested form may be a part): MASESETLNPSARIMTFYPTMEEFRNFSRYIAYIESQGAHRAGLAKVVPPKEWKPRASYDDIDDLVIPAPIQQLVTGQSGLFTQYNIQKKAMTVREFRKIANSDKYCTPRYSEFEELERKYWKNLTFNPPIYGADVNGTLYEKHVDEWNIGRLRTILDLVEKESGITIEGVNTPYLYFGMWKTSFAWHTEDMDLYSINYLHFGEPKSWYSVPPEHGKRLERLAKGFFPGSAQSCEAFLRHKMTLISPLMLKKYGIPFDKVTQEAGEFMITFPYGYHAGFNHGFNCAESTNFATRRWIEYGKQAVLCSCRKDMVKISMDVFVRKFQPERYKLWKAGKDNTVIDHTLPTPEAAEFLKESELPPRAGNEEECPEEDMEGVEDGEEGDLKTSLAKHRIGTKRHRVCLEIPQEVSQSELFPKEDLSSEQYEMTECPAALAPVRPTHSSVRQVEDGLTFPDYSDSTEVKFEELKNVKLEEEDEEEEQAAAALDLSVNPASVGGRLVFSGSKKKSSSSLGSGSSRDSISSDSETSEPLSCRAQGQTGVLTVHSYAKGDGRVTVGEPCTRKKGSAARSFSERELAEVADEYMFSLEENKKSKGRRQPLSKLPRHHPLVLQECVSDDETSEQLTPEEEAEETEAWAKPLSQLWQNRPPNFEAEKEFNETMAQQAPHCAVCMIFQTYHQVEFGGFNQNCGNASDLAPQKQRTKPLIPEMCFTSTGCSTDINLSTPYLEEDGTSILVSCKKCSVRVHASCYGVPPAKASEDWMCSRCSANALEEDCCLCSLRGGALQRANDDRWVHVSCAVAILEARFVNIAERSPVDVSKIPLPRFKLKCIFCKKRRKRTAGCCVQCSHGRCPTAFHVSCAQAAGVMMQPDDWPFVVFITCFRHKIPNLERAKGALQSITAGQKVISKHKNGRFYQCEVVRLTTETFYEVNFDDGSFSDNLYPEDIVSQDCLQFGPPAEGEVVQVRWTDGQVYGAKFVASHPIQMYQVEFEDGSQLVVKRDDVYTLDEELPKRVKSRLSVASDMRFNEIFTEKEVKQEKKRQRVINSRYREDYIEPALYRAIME
Lysine-specific demethylase 4C, sequence (Q9H3R0 whole entry): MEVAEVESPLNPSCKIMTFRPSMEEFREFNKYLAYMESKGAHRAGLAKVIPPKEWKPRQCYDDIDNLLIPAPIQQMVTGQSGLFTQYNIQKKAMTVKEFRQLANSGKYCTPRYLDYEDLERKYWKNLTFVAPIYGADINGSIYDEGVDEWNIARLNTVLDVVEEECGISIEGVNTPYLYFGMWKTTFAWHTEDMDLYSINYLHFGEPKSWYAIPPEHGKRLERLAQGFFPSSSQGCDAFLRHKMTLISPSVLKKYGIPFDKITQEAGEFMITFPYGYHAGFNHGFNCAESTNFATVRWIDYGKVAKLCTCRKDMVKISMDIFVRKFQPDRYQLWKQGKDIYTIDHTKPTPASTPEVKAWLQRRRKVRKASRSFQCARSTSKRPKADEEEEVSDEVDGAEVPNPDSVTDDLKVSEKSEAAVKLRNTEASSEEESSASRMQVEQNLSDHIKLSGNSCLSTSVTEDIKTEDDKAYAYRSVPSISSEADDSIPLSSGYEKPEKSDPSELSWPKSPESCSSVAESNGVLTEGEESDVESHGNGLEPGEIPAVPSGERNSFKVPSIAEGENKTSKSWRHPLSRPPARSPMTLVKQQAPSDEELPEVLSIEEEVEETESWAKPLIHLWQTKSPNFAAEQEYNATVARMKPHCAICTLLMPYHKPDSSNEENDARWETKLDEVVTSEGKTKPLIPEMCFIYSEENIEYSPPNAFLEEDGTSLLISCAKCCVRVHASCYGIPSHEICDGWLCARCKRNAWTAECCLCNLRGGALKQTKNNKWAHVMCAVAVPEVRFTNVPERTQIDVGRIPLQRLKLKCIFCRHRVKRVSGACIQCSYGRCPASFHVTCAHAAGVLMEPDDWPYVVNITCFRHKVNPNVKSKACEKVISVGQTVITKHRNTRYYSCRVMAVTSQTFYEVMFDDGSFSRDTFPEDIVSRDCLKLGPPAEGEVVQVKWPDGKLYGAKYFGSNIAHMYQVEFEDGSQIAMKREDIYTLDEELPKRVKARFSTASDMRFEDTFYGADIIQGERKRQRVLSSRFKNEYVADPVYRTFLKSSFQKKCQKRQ

For `CCOC(=O)C1=C(C)NC(=O)NC1c1c(C)nn(-c2ccccc2)c1Cl` (stereo not given), the IC50 [1] was 5.4 µM (active), the AC50 [2] was 1.22 µM (active) and the AC50 [3] was 8.63 µM (active).

For `COc1ccc2[nH]c3c(c2c1)CCNC3c1ccc([N+](=O)[O-])o1` (stereo not given), the EC50 [4] was 5.82 µM (inconclusive), the IC50 [5] was > 119 µM (inactive) and the IC50 (Exodeoxyribonuclease V) was > 119 µM (inactive). For the same molecule, the EC50 [6] was 4.34 µM (inconclusive) and the EC50 [7] was 34.1 µM (active).

For `CSc1nc(SCC(=O)O)c2sc3nc(-c4ccccc4)c4c(c3c2n1)CCC4`, the EC50 (Streptococcus) was 6.54 µM (active), the IC50 [8] was 5.16 µM (active) and the IC50 [9] was 2.06 µM (active). The IC50 [10] was 5.26 µM (active), the EC50 (Streptokinase A) was 7.33 µM (active) and the IC50 [11] was 5.06 µM (active). For the same molecule, the IC50 [12] was 96.5 µM (active), the IC50 [13] was 5.38 µM (active) and the EC50 [14] was 1.41 µM (active). The IC50 [15] was 3.72 µM (active), the IC50 [16] was 3.74 µM (not active) and the IC50 (Genome polyprotein) was 48.9 µM (active).
